Test results as given in US10752609B2, “GSK-3 inhibitors” (priority 2016, dated 2020).

Legend:
GSK3β = GSK3β (Homo sapiens, UniProt P49841); assay: GSK3β kinase assay (Caliper LabChip3000 mobility shift, fluoresceinated peptide substrate); assay type: biochemical; conditions: 250 pM enzyme, 20 uM ATP, 1.5 uM peptide, 20 hours room temperature; first value of cell GSK3β/GSK3α; read-out: GSK3β (nM), IC50
Description: (§1) The kinase assay was performed in V-bottom 384-well plates. […] The reaction was incubated at room temperature for 20 hours and terminated by adding 45 μl of 35 mM EDTA to each sample. The reaction mixture was analyzed on the Caliper LabChip3000 (Caliper, Hopkinton, Mass.) by electrophoretic separation of the unphosphorylated substrate and phosphorylated product. […] Compounds were dissolved at 10 mM in dimethylsulfoxide (DMSO) and evaluated at eleven concentrations. IC50 values were derived by non-linear regression analysis.

pTau = pTau assay (no method described); assay type: cell-based
GSK3α = GSK3α (Homo sapiens, UniProt P49840); assay: GSK3α kinase assay (Caliper LabChip3000 mobility shift, fluoresceinated peptide substrate)
GSK3α, sequence (P49840 whole entry, species assumed): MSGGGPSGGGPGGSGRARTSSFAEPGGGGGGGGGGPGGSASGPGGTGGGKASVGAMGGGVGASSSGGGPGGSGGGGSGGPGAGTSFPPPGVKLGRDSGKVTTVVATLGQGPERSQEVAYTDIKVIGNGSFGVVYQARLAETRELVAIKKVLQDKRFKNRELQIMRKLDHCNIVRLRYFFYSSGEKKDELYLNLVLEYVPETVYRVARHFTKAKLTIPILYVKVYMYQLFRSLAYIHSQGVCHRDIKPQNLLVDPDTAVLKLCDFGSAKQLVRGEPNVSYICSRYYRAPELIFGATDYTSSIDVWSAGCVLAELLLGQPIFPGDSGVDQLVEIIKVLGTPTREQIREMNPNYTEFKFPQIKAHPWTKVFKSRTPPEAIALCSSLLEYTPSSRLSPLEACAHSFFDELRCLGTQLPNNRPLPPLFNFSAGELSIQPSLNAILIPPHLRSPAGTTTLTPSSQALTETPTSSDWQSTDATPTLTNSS
Description: as §1

GSK3β, sequence (P49841 whole entry, species assumed): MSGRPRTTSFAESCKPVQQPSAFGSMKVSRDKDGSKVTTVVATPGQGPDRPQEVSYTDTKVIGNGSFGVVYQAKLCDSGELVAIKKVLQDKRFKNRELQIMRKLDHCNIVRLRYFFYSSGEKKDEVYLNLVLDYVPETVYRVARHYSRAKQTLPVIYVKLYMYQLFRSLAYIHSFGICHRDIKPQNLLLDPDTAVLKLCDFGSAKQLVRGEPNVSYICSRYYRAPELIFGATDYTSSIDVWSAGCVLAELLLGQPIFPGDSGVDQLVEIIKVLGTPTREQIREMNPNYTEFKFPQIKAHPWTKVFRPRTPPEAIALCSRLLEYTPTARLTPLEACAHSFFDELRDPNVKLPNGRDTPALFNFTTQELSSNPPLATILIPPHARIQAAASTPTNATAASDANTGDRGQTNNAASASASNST

SMILES | IC50 (GSK3β) [nM] | IC50 (pTau) [nM] | IC50 (GSK3α) [nM]
O=C(Nc1cnccc1-c1ccccc1)c1ccnc(Nc2ccccc2)n1 [Example 4, 2-(Phenylamino)-N-(4-phenylpyridin-3-yl)pyrimidine-4-carboxamide] | 0.43 | 104 | 0.31
CN1C(C)(C)CC(Nc2nccc(C(=O)Nc3cnccc3OCC(F)(F)F)n2)CC1(C)C [Example 145, 2-((1,2,2,6,6-Pentamethylpiperidin-4-yl)amino)-N-(4-(2,2,2-trifluoroethoxy)pyridin-3-yl)pyrimidine-4-carboxamide] | 250 | 10000 | 460
O=C(Nc1cnccc1OCC(F)(F)F)c1ccnc(NCc2cc(C(F)(F)F)cc(C(F)(F)F)c2)n1 [Example 144, 2-((3,5-Bis(trifluoromethyl)benzyl)amino)-N-(4-(2,2,2-trifluoroethoxy)pyridin-3-yl)pyrimidine-4-carboxamide] | 210 | 10000 | 200
O=C(Nc1cncnc1OCC(F)(F)F)c1ccnc(Nc2cc(F)c(Cl)cc2F)n1 [Example 72, 2-((4-Chloro-2,5-difluorophenyl)amino)-N-(4-(2,2,2-trifluoroethoxy)pyrimidin-5-yl)pyrimidine-4-carboxamide] | 1.6 | 290 | 1.1
O=C(Nc1cnccc1OCC(F)(F)F)c1ccnc(NCc2ccccc2C(F)(F)F)n1 [Example 137, N-(4-(2,2,2-Trifluoroethoxy)pyridin-3-yl)-2-((2-(trifluoromethyl)benzyl)amino)pyrimidine-4-carboxamide] | 4.1 | 350 | 2.3
O=C(Nc1cncc(-c2ccccc2F)c1)c1ccnc(Nc2ccc(OC(F)F)nc2)n1 [Example 105, 2-((6-(Difluoromethoxy)pyridin-3-yl)amino)-N-(5-(2-fluorophenyl)pyridin-3-yl)pyrimidine-4-carboxamide] | 31 | 2100 | 15
N#Cc1ccc(Nc2nccc(C(=O)Nc3cnccc3-c3ccc(F)cc3)n2)cc1 [Example 45, 2-((4-Cyanophenyl)amino)-N-(4-(4-fluorophenyl)pyridin-3-yl)pyrimidine-4-carboxamide] | 0.35 | 10 | 0.29
